Laboratory results: ChEMBL document CHEMBL5360653, “Marine Alkaloid Lepadins E and H Induce Ferroptosis for Cancer Chemotherapy” (J Med Chem, 2023)
Calls of active or inactive are those of the source. The calls are words filed in the database; no cut-off is given here.

Legend:
NCI-H1155 = test: Cytotoxicity against human NCI-H1155 cells incubated for 72 hrs by MTT assay; assay type: functional, cell-based; settings: NCI-H1155, 72 h
HeLa [1] = test: Induction of ROS generation in human HeLa cells assessed as increase in ROS level; assay type: functional, cell-based; settings: dose 4-10 µM
A549 = test: Cytotoxicity against human A549 cells incubated for 72 hrs by MTT assay; assay type: functional, cell-based; settings: A549, 72 h
HeLa [2] = test: Induction of apoptosis in human HeLa cells assessed as viable cells incubated at 4 uM for 24 hrs measured by annexin V-PI staining based FITC analysis (reference value: 93.9%); assay type: functional; settings: read-out: Activity
HeLa [3] = test: Cytotoxicity against human HeLa cells assessed as increase in cell viability pretreated with Ferrostatin-1 for 4 hrs followed by compound addition at 10 uM for 24 hrs; assay type: functional, cell-based
HeLa [4] = test: Cytotoxicity against human HeLa cells assessed as increase in cell viability pretreated with DFO for 4 hrs followed by compound addition at 10 uM for 24 hrs; assay type: functional, cell-based
HeLa [5] = test: Induction of apoptosis in human HeLa cells assessed as apoptotic cells incubated at 10 uM for 24 hrs measured by annexin V-PI staining based FITC analysis (Rvb ~ 5%); assay type: functional
HeLa [6] = test: Inhibition of colony formation in human HeLa cells treated at 9 uM for 24 hrs measured by paraformaldehyde based crystal violet staining analysis; assay type: functional, cell-based
MDA-MB-231 = test: Cytotoxicity against human MDA-MB-231 cells incubated for 72 hrs by MTT assay; assay type: functional, cell-based; settings: MDA-MB-231, 72 h
HeLa [7] = test: Inhibition of colony formation in human HeLa cells treated upto 6 uM for 24 hrs measured by paraformaldehyde based crystal violet staining analysis; assay type: functional, cell-based
HeLa [8] = test: Induction of apoptosis in human HeLa cells assessed as necrotic cells incubated at 8 uM for 24 hrs measured by annexin V-PI staining based FITC analysis (reference value: 0.58%); assay type: functional
SMMC-7721 = test: Cytotoxicity against human SMMC-7721 cells incubated for 72 hrs by MTT assay; assay type: functional, cell-based; settings: SMMC-7721, 72 h
HeLa [9] = test: Inhibition of colony formation in human HeLa cells treated for 24 hrs measured by paraformaldehyde based crystal violet staining analysis; assay type: functional, cell-based; settings: dose 5-9 µM
HeLa [10] = test: Cytotoxicity against human HeLa cells incubated for 72 hrs by MTT assay; assay type: functional, cell-based
HeLa [11] = test: Effect on lipid peroxidation in human HeLa cells measured at 10 to 12 uM for 4 hrs by C11-BODIPY581/591 staining based flow cytometric analysis relative to control; assay type: functional; settings: dose 10-12 µM
HeLa [12] = test: Induction of apoptosis in human HeLa cells assessed as viable cells incubated at 8 uM for 24 hrs measured by annexin V-PI staining based FITC analysis (reference value: 93.9%); assay type: functional; settings: read-out: Activity
HeLa [13] = test: Induction of apoptosis in human HeLa cells assessed as increase in cleaved PARP expression level at 10 uM by immunoblotting analysis; assay type: functional, cell-based
HeLa [14] = test: Induction of apoptosis in human HeLa cells assessed as early apoptotic cells incubated at 4 uM for 24 hrs measured by annexin V-PI staining based FITC analysis (reference value: 3.94%); assay type: functional
HeLa [15] = test: Cytotoxicity against human HeLa cells assessed as increase in cell viability pretreated with NAC for 1 hr followed by compound addition at 2.5 to 20 uM for 24 hrs relative to control; assay type: functional; settings: dose 2.5-20 µM
MCF7 = test: Cytotoxicity against human MCF7 cells incubated for 72 hrs by MTT assay; assay type: functional, cell-based; settings: MCF7, 72 h
HeLa [16] = test: Inhibition of colony migration in human HeLa cells treated for 24 hrs measured by paraformaldehyde based crystal violet staining analysis; assay type: functional, cell-based; settings: dose 0.625-10 µM
HeLa [17] = test: Induction of apoptosis in human HeLa cells assessed as viable cells incubated at 10 uM for 24 hrs measured by annexin V-PI staining based FITC analysis (reference value: 93.9%); assay type: functional; settings: read-out: Activity
HeLa [18] = test: Upregulation of p21 expression in human HeLa cells measured at 4 to 10 uM for 24 hrs by Western blotting analysis; assay type: functional, cell-based; settings: dose 4-10 µM
L02 = test: Cytotoxicity against human L02 cells incubated for 72 hrs by MTT assay; assay type: functional, cell-based; settings: L02, 72 h
HeLa [19] = test: Induction of apoptosis in human HeLa cells assessed as late apoptotic cells preincubated with PFTalpha followed by compound addition at 10 uM for 24 hrs measured by annexin V-PI staining based FITC analysis (reference value: 3.45%); assay type: functional
HeLa [20] = test: Upregulation of p53 expression in human HeLa cells measured at 4 to 10 uM for 24 hrs by Western blotting analysis; assay type: functional, cell-based; settings: dose 4-10 µM
HeLa [21] = test: Induction of apoptosis in human HeLa cells assessed as early apoptotic cells incubated at 8 uM for 24 hrs measured by annexin V-PI staining based FITC analysis (reference value: 3.94%); assay type: functional
HepG2 = test: Cytotoxicity against human HepG2 cells incubated for 72 hrs by MTT assay; assay type: functional, cell-based; settings: HepG2, 72 h
NCI-H1355 = test: Cytotoxicity against human NCI-H1355 cells incubated for 72 hrs by MTT assay; assay type: functional, cell-based; settings: NCI-H1355, 72 h
HeLa [22] = test: Induction of apoptosis in human HeLa cells assessed as viable cells incubated at 6 uM for 24 hrs measured by annexin V-PI staining based FITC analysis (reference value: 93.9%); assay type: functional; settings: read-out: Activity
SH-SY5Y = test: Cytotoxicity against human SH-SY5Y cells incubated for 72 hrs by MTT assay; assay type: functional, cell-based
SK-OV-3 = test: Cytotoxicity against human SK-OV-3 cells incubated for 72 hrs by MTT assay; assay type: functional, cell-based; settings: SK-OV-3, 72 h
HeLa [23] = test: Induction of ferroptosis in human HeLa cells assessed as disappearance of mitochondrial cristae measured at 6 uM for 24 hrs by transmission electron microscopic analysis; assay type: functional, cell-based
HeLa [24] = test: Induction of ferroptosis in human HeLa cells assessed as decrease in cellular GSH level measured at 4 uM for 24 hrs by transmission electron microscopic analysis; assay type: functional, cell-based
HeLa [25] = test: Induction of apoptosis in human HeLa cells assessed as viable cells incubated at 10 uM for 24 hrs measured by annexin V-PI staining based FITC analysis (reference value: 94.2%); assay type: functional; settings: read-out: Activity
[26] = Toxicity in immunocompetent C57BL/6J mouse allografted with B16-F10 cells assessed as tissue damage in spleen administered at 30 mg/kg, ip daily for 14 days by hematoxylin and eosin staining analysis; assay type: organism-based; settings: in vivo, 336 h, time 14 day
B16-F10 [27] = test: Induction of ferroptosis in mouse B16-F10 cells assessed as downregulation of SLC7A11 level measured at 4 to 10 uM by Western blotting analysis; assay type: functional, cell-based; settings: dose 4-10 µM
HeLa [28] = test: Induction of ferroptosis in human HeLa cells assessed as increase in density of mitochondrial membrane measured at 6 uM for 24 hrs by transmission electron microscopic analysis; assay type: functional, cell-based
HeLa [29] = test: Induction of apoptosis in human HeLa cells assessed as late apoptotic cells preincubated with PFTalpha followed by compound addition at 10 uM for 24 hrs measured by annexin V-PI staining based FITC analysis (reference value: 2.3%); assay type: functional
B16-F10 [30] = test: Induction of ferroptosis in mouse B16-F10 cells assessed as increase in ACSL4 level measured at 4 to 10 uM by Western blotting analysis; assay type: functional, cell-based; settings: dose 4-10 µM

SMILES | IC50 (NCI-H1155) | Activity (HeLa [1]) | IC50 (A549) | viability at 4 µM (HeLa [2]) | Activity (HeLa [3]) | Activity (HeLa [4]) | Activity (HeLa [5]) | inhibition (HeLa [6]) | IC50 (MDA-MB-231) | inhibition (HeLa [7]) | IC50 (SMMC-7721) | inhibition (HeLa [9]) | IC50 (HeLa [10]) | Activity (HeLa [11]) | viability at 8 µM (HeLa [12]) | Activity (HeLa [13]) | Activity (HeLa [15]) | IC50 (MCF7) | inhibition (HeLa [16]) | viability at 10 µM (HeLa [17]) | other results
CCCCC/C=C/C(=O)O[C@@H]1C[C@H]2[C@@H](CCCC[C@H](O)CCC)CCC[C@H]2N[C@H]1C | 7.88 µM | Dose-Dependent Effect | 5.93 µM | 91.4% | Not toxic | Not toxic | ~50% | Active | 8.04 µM | inactive | 3.93 µM | Dose-Dependent Effect | 2.67 µM | 10% | 52.2% | Active | 5% | 5.95 µM | Dose-Dependent Effect | 45.3% | Activity (HeLa [8]): 3.09%; Activity (HeLa [14]): 5.32%; Activity (HeLa [18]): Active; IC50 (L02): 18.7 µM; Activity (HeLa [19]): 26.9%; Activity (HeLa [20]): Active; Activity (HeLa [21]): 20.9%; IC50 (HepG2): 6.2 µM; IC50 (NCI-H1355): 8.8 µM; viability at 6 µM (HeLa [22]): 65%; IC50 (SH-SY5Y): 6.19 µM; IC50 (SK-OV-3): 7.94 µM
CCC/C=C/C=C/C(=O)O[C@@H]1C[C@H]2[C@@H](CCCC[C@H](O)CCC)CCC[C@H]2N[C@H]1C | 7.06 µM | Dose-Dependent Effect | 4.68 µM | 91.8% | Not toxic | Not toxic | ~70% | Active | 8.51 µM | inactive | 4.09 µM | Dose-Dependent Effect | 2.52 µM | 10% | 76.1% | Active | 5% | 5.03 µM | Dose-Dependent Effect | 26.1% | Activity (HeLa [23]): Active; Activity (HeLa [24]): Active; viability at 10 µM (HeLa [25]): 20.6%; Activity [26]: Non-Toxic; Activity (B16-F10 [27]): Active; Activity (HeLa [28]): Active; Activity (HeLa [29]): 19.5%; Activity (HeLa [18]): Active; IC50 (L02): 12.5 µM; Activity (HeLa [20]): Active; IC50 (HepG2): 6.2 µM; Activity (B16-F10 [30]): Active; IC50 (NCI-H1355): 9.3 µM; viability at 6 µM (HeLa [22]): 88.4%; IC50 (SH-SY5Y): 5.8 µM; IC50 (SK-OV-3): 8.02 µM
